Data from patent publication US9452195B2, “Use of CHEC peptides to treat neurological and cardiovascular diseases and disorders” (Drexel University, priority 2010, dated 2016).

What was measured:
phospholipase A2 (sPLA2) = details: statement referring to earlier patents and applications; cited from earlier work
[1] = test system: hippocampal neuronal activity in kainic acid-treated rats; assay: Multiunit activity in CA1 cell field of hippocampus of kainic acid treated rats; format: in vivo, rat; details: CHEC-9 1 mg/kg orally 40 min before KA 10 mg/kg IP
Source text: FIG. 1, is a graph depicting multiunit activity recorded from the CA1 cell field of the hippocampus of awake, freely moving kainic acid-treated rats that have been treated either with CHEC-9 or vehicle. Multiunit activity is presented as impulses recorded per second and provided as a percentage of baseline activity measured prior to seizure induction.
Rats were implanted with a multichannel electrode bundle placed in the CA1 cell field of the hippocampus one week prior to the experiment. Baseline hippocampal neuronal activity (impulses per second) was collected during a 30 minute control period. After 30 minutes of baseline neuronal activity was collected, either CHEC-9 (1 mg/kg) or vehicle was administered orally 40 min prior to IP administration of kainic acid (10 mg/kg). The duration of the KA administration varied. Neuronal activity in response to KA administration is presented as % of baseline activity (FIG. 1).

[2] = test system: KA induced motor seizures in rats; assay: Kainic acid (KA) induced motor seizures in rats, graded by Racine scale; format: in vivo, rat; design: key to Max Seizure Stage: 1: hypoactivity, mouth and facial automatism; 2: head nodding and mastication; 3: forelimb clonus without rearing; 4: bilateral forelimb clonus and rearing; 5: rearing and loss of posture; Status epilepticus: stage 4-5 lasting for 30 min,
Protocol: Kainic acid (KA) was administered intraperitoneal (IP) to rats at doses ranging from […]. Rats age postnatal day (P) 12-15 were administered 2 mg/kg KA. Rats age P35-40 were administered 6 mg/kg KA. The KA was delivered in a constant volume of phosphate buffer (5 ml/kg) and reliably produced motor seizure activity.
Following IP administration of KA, rats were video-recorded for 3 hours, and then daily for 3 hours. The video recordings are later scored blind. The severity and latency of seizures is graded for P35 rats by a classical scale shown in Table 1 (Racine, 1972, Electroencephalog. Clin. Neurophysiol. 32:281-294).
Rats (250-300 g) are done in pairs and administered either a control peptide/vehicle or CHEC peptide in vehicle at various intervals pre- or post KA treatment. Control or CHEC peptide are administered either 4, 2 or 0.5 hours pre-KA or 0.25, and 0.5 hrs post-KA. The effects of CHEC-7 and CHEC-9 are compared because the peptides have different pharmakinetic profiles in rat.
Forty minutes prior to KA administration, the rats were administered either control peptide or CHEC-9 at the indicated dosages and routes of administration. The resulting motor seizures were graded as described elsewhere herein. […] In one set of experiments, rats were pre-fed lecithin or phosphatidylcholine prior to administering the KA.

neuron = details: cited from earlier work

| Substance | inhibition of phospholipase A2 / sPLA2 (phospholipase A2 (sPLA2)) | seizure symptoms by the end of the experiment ([1]; vehicle rat reached status epilepticus) | effect of KA on neuronal activity (multiunit activity, % of baseline) ([1]; versus vehicle) | Max Seizure Stage ([2]; individual rat, C9 0.5 mg/kg sc 40 min before KA 6 mg/kg ip) | Max Seizure Stage ([2]; individual rat, C9 1.0 mg/kg po 40 min before KA 5 mg/kg ip) | Max Seizure Stage ([2]; individual rats, C9 0.5 mg/kg sc 40 min before KA 5 mg/kg ip) | Max Seizure Stage ([2]; individual rats, C9 1.0 mg/kg po 40 min before KA 10 mg/kg ip, female rats) | Max Seizure Stage ([2]; individual rats, C9 1.0 mg/kg po 40 min before KA 10 mg/kg ip, male rats) | likelihood of severe motor seizures versus vehicle control ([2]; rats 250-300 g, peptide given 40 min before KA) | neuron protective activity (neuron) |
| --- | --- | --- | --- | --- | --- | --- | --- | --- | --- | --- |
| CHEASAAQC [CHEC-9] | inhibit phospholipase A2 | no obvious symptoms | much smaller effect of KA on neuronal activity | 2 | 1 | 1 | 3 | 1 | vehicle control were more likely to exhibit severe motor seizures than rats that were administered CHEC-9 | – |
| CAHAQAESC [CHEC-9 peptide variant] | inhibit phospholipase A2 | – | – | – | – | – | – | – | – | also has neuron protective activity |
| CHEASQC [CHEC-7] | even more potent as a sPLA2 inhibitor than CHEC-9 | – | – | – | – | – | – | – | – | – |
